Reference: PMC7072648, “N-(2-Hydroxyphenyl)-1-[3-(2-oxo-2,3-dihydro-1H- benzimidazol-1-yl)propyl]piperidine-4-Carboxamide (D2AAK4), a Multi-Target Ligand of Aminergic GPCRs, as a Potential Antipsychotic” (Biomolecules, 2020)
“And” between values parts separate entries of the source, which are not always exact repeats. Identical values can stand only once.

Key:
human D2S receptor [1] = molecular target: T1, human D2S receptor (Homo sapiens, UniProt P14416); test: Radioligand binding assay at human D2 receptor; settings: mean ± SEM, two independent experiments in duplicate; read-out: pKi hD2 (converted)
T1 construct: expressed in transfected cells
Description: Radioligand binding assays were performed on cell membrane preparations from cell lines stably expressing the human cloned receptors. Chinese hamster ovary K1 (CHO-K1) cell lines stably expressing human D2S, 5-HT2A or H1 receptors and human embryonic kidney 293 (HEK293) cell lines stably expressing human 5-HT1A or 5-HT7(a) receptors were in-house available, whereas CHO-K1 cell lines stably expressing human D1 or D3 receptors (Perkin Elmer, Waltham, MA, USA) and Chem-1 cell line stably expressing human M1 receptor (Millipore, Merck KGaA, Darmstadt, Germany) were commercially available. Experimental conditions for binding assays at D1, D2, D3, 5-HT1A and 5-HT2A receptors have been previously reported. 0.7 nM [^3H]-SCH23390, 2 nM [^3H]-SB269970 (5-HT7), 2 nM [^3H]-Pyrilamine (H1) and 2 nM [^3H]-Pirenzepine (M1) were employed as radioligands. […] Affinity (equilibrium dissociation constant (Ki) and pKi (−logKi)) values were calculated as previously reported. Affinity values of reference compounds that were assayed in parallel to D2AAK4 as internal controls in the binding assays are given in Supplementary Figure S1 (legend).

human D1 receptor = human D1 receptor (Homo sapiens, UniProt P21728); test: Radioligand binding assay at human D1 receptor; settings: mean ± SEM, two independent experiments in duplicate; read-out: pKi hD1 (converted)
Description: (§1) Radioligand binding assays were performed on cell membrane preparations from cell lines stably expressing the human cloned receptors. […] Experimental conditions for binding assays at D1, D2, D3, 5-HT1A and 5-HT2A receptors have been previously reported. 0.7 nM [^3H]-SCH23390, 2 nM [^3H]-SB269970 (5-HT7), 2 nM [^3H]-Pyrilamine (H1) and 2 nM [^3H]-Pirenzepine (M1) were employed as radioligands. […] Affinity (equilibrium dissociation constant (Ki) and pKi (−logKi)) values were calculated as previously reported. Affinity values of reference compounds that were assayed in parallel to D2AAK4 as internal controls in the binding assays are given in Supplementary Figure S1 (legend).

human D3 receptor = human D3 receptor (Homo sapiens, UniProt P35462); test: Radioligand binding assay at human D3 receptor; settings: mean ± SEM, two independent experiments in duplicate; read-out: pKi hD3 (converted)
Description: as §1

human 5-HT1A receptor = molecular target: T2, human 5-HT1A receptor (Homo sapiens, UniProt P08908); test: Radioligand binding assay at human 5-HT1A receptor; settings: mean ± SEM, read-out: % inh. at 10 μM (5-HT1A)
T2 construct: expressed in transfected cells
T2 sequence (P08908 1-422): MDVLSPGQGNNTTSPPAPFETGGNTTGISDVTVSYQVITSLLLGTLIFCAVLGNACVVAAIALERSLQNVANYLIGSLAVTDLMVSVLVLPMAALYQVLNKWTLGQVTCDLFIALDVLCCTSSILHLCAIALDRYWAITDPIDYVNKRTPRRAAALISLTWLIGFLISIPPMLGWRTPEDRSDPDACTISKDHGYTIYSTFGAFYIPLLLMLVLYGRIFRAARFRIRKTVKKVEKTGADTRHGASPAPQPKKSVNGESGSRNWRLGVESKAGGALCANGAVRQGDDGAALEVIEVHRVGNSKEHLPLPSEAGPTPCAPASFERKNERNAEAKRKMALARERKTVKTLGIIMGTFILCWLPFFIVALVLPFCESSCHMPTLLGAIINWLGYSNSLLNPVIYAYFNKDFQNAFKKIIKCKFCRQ
Description: as §1

human 5-HT2A receptor [2] = molecular target: T3, human 5-HT2A receptor (Homo sapiens, UniProt P28223); test: Radioligand binding assay at human 5-HT2A receptor
T3 construct: expressed in transfected cells
Description: as §1

human 5-HT7(a) receptor = molecular target: T4, human 5-HT7(a) receptor (Homo sapiens, UniProt P34969); test: Radioligand binding assay at human 5-HT7 receptor; settings: mean ± SEM; full displacement not achieved at maximum concentration, pKi could be not accurately estimated; read-out: pKi h5-HT7 (converted)
T4 construct: expressed in transfected cells
Description: as §1

human H1 receptor = molecular target: T5, human H1 receptor (Homo sapiens, UniProt P35367); test: Radioligand binding assay at human H1 receptor; settings: mean ± SEM, two independent experiments in duplicate; read-out: pKi hH1 (converted)
T5 construct: expressed in transfected cells
Description: as §1

human M1 receptor = molecular target: T6, human M1 receptor (Homo sapiens, UniProt P11229); test: Radioligand binding assay at human M1 receptor; settings: mean ± SEM; full displacement not achieved at maximum concentration, pKi could be not accurately estimated; read-out: pKi hM1 (converted)
T6 sequence (P11229 1-460): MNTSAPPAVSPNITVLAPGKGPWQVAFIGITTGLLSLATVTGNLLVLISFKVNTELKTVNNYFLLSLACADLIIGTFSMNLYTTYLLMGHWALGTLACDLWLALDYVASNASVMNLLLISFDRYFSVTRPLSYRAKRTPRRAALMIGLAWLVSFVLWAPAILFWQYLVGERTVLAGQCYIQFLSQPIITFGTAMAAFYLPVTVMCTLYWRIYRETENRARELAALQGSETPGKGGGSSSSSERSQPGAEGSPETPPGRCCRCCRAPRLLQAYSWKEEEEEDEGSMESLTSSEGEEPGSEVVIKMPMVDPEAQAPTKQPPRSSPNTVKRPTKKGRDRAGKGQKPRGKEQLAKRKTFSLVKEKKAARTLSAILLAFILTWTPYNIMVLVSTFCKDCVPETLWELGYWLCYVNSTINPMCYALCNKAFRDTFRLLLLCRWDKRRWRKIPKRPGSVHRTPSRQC
Description: as §1

human D2S receptor [3] = molecular target: T1, human D2S receptor; test: Functional assay of cAMP signaling at D2 receptors (CHO-K1 cells); format: cell-based
Description: Compound was initially assessed at 10 µM concentration either as agonist or as antagonist of 10 µM dopamine response. Dopamine (10 nM–1 mM) was used as reference agonist in these assays.

human 5-HT2A receptor [4] = molecular target: T3, human 5-HT2A receptor; test: Functional assay of inositol phosphate (IP) production at 5-HT2A receptors (CHO-K1 cells); format: cell-based
mice [5] = test: Motor coordination, rotarod and chimney tests; format: in vivo; settings: 100 mg/kg i.p., 60 min after injection
Description: Motor coordination has been assessed in mice using the rotarod test and the chimney test using the same procedure as described in our earlier work. […] D2AAK1 was previously studied using the same dose so we decided to select the dose of 100 mg/kg.

mice [6] = test: Passive avoidance (PA) task, memory consolidation; format: in vivo; settings: 100 mg/kg i.p. immediately after pretest, retest 24 h later; p < 0.0001 vs vehicle
Description: The PA apparatus was described previously. The PA procedure was also previously described.
Mice received D2AAK4 immediately after being pretested on Day 1, and then they were retested (without injections) 24 h later. The changes in PA performance were calculated as the difference between retention and training latencies (i.e., latency index (IL)). More specifically, IL was calculated for each animal and presented as the ratio (as described in [12, 29]).

mice [7] = test: Elevated plus maze (EPM) test; format: in vivo; settings: 100 mg/kg i.p., 30 and 60 min after administration
Description: The EPM apparatus was used as described previously. The EPM procedure was described in our previous papers. The percentage (%) of time spent in the open arms and % of entries into the open arms were calculated. Moreover, the number of entries into the closed arms was recorded as the motor activity indicator of tested mice.
To determine D2AAK4 acute effect on anxiety-like behavior, the studied compound (100 mg/kg; i.p.) (n = 8) or vehicle (i.p.) (n = 8) was injected 30 and 60 min before the EPM test.

human D2S receptor [8] = molecular target: T1, human D2S receptor; settings: 10 µM compound versus 10 µM dopamine, cAMP assay; cited from earlier work
mice [9] = test: Amphetamine-induced hyperactivity; settings: 100 mg/kg i.p. coadministered with amphetamine 5 mg/kg s.c.; p < 0.001 vs amphetamine-treated group
human 5-HT2A receptor [10] = molecular target: T3, human 5-HT2A receptor; settings: atypical antipsychotics, literature values, no reference given; cited from earlier work

T3 sequence (P28223 whole entry): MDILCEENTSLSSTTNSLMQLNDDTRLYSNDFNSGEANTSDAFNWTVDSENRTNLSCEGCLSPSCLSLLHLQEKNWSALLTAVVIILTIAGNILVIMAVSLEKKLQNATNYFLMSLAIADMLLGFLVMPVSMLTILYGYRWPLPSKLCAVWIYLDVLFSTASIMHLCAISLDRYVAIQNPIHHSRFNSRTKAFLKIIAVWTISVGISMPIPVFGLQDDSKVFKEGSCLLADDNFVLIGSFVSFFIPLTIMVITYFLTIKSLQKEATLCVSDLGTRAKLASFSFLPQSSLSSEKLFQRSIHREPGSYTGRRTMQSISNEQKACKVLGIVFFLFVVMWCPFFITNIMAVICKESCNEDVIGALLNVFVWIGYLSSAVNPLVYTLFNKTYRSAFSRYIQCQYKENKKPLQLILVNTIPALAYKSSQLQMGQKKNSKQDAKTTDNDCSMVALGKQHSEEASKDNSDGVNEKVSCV
T1 sequence (P14416 1-414 isoform P14416-2): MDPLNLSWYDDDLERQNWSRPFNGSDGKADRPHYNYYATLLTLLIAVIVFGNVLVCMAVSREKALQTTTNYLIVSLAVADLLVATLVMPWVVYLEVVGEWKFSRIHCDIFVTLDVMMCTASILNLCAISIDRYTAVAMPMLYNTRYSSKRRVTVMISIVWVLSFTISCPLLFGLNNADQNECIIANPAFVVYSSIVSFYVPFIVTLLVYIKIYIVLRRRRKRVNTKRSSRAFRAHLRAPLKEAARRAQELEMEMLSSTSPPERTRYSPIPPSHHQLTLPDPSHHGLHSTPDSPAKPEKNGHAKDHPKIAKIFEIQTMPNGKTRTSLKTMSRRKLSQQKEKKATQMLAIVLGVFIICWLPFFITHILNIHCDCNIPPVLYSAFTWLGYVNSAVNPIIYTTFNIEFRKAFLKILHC
Sequence of human D1 receptor (P21728 whole entry): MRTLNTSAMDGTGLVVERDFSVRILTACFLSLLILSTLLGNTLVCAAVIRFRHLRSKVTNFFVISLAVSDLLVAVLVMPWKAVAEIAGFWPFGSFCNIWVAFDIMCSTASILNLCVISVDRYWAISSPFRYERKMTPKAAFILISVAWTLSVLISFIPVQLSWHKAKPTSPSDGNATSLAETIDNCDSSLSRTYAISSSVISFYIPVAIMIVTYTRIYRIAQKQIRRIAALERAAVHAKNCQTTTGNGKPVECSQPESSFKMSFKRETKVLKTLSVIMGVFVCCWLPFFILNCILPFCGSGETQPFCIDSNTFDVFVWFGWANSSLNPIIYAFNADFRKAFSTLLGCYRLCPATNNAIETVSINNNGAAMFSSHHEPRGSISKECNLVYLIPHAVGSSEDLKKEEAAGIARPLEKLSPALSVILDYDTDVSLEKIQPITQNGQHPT
T4 sequence (P34969 1-445 isoform P34969-2): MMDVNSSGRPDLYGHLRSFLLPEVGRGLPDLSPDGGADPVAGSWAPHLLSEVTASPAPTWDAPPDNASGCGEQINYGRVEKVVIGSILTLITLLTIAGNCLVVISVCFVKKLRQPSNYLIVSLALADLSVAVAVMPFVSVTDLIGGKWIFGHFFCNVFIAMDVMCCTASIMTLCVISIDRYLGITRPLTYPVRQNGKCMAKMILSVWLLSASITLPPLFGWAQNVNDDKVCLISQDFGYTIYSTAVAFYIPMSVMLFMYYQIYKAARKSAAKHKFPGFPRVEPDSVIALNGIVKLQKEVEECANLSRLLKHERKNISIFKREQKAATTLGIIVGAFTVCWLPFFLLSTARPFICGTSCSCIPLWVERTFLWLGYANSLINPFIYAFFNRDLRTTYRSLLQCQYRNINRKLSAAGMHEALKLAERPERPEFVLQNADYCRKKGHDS
T5 sequence (P35367 whole entry): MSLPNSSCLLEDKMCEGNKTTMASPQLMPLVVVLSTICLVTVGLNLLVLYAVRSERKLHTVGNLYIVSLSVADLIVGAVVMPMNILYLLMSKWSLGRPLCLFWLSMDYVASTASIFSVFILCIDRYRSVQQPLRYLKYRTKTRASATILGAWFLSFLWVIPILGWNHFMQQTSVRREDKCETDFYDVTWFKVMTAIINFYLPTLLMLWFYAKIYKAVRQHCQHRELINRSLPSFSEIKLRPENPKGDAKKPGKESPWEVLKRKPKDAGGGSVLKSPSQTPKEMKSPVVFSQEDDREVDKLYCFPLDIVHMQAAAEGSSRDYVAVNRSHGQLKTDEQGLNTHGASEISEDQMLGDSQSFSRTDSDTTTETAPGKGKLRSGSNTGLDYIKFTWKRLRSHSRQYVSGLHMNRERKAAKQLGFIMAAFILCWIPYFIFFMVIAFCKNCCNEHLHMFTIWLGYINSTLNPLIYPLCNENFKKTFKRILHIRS
Sequence of human D3 receptor (P35462 whole entry): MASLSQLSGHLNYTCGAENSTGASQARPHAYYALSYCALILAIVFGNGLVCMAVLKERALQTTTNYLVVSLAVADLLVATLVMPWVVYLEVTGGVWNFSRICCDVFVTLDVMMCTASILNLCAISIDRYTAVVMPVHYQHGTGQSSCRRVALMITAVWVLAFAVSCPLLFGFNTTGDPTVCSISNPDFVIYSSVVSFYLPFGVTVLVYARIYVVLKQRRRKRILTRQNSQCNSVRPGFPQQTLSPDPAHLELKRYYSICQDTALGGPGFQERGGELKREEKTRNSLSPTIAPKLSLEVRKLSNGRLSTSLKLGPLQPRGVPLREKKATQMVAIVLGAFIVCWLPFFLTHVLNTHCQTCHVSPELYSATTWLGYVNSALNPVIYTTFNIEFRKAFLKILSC

O=C(Nc1ccccc1O)C1CCN(CCCn2c(=O)[nH]c3ccccc32)CC1 [D2AAK4, N-(2-hydroxyphenyl)-1-[3-(2-oxo-2,3-dihydro-1H-benzimidazol-1-yl)propyl]piperidine-4-carboxamide]
Ki (human D2S receptor [1]): 1.86 µM | Ki (human D1 receptor): 2.51 µM | Ki (human D3 receptor): 9.33 µM | inhibition at 10 µM (human 5-HT1A receptor): 9.7 ± 0.4% | 5-HT2A/D2 affinity ratio (Ki D2/Ki 5-HT2A), times higher affinity for 5-HT2A (human 5-HT2A receptor [2]; 5-HT2A versus D2 receptor): 3.67 times | Ki (human 5-HT2A receptor [2]; mean ± SEM, three independent experiments in duplicate, read-out: pKi h5-HT2A (converted)): 0.49 µM | Ki (human 5-HT7(a) receptor): 6.61 µM | Ki (human H1 receptor): 3.89 µM | Ki (human M1 receptor): 3.89 µM | % inh. at 100 µM (inhibition of dopamine response), hD2 (human D2S receptor [3]; 100 µM compound (maximal assayed) versus 10 µM dopamine, cAMP assay): 44% | inhibition at 100 µM (human D2S receptor [3]; CHO-K1, read-out: % inh. at 100 µM (inhibition of dopamine response), hD2, 100 µM compound (maximal assayed) versus 10 µM dopamine, cAMP assay): 44.1 ± 1.5% | agonist efficacy at 5-HT2A (IP signaling) (human 5-HT2A receptor [4]; 0.1 nM to 100 µM): unable to promote IP signaling | inhibition at 10 µM (human 5-HT2A receptor [4]; CHO-K1, read-out: % inh. at 10 µM (inhibition of 5-HT response), h5-HT2A, 10 µM compound versus 1 µM 5-HT, IP assay): 97.4 ± 1.6% | IC50 (human 5-HT2A receptor [4]; versus 1 µM 5-HT-stimulated IP production, read-out: IC50, 5-HT2A antagonist): 0.714 µM | motor coordination in rotarod and chimney tests (mice [5]): does not impair mouse motor coordination | latency index (IL) values, memory consolidation (mice [6]): statistically significant increase | % of the time spent in the open arms (mice [7]; p < 0.0001): decrease | % of the open arm entries (mice [7]; p = 0.0272 and p = 0.0092): decrease | % inh. at 10 µM (inhibition of dopamine response), hD2 (human D2S receptor [8]): 12.1 ± 6.0% and 12% | amphetamine-induced hyperactivity (mice [9]): decreased amphetamine-induced hyperactivity

Cc1nc2n(c(=O)c1CCN1CCC(c3noc4cc(F)ccc34)CC1)CCCC2O (stereo not shown) [paliperidone]
5-HT2A/D2 affinity ratio (human 5-HT2A receptor [10]): 2.16

O=C1Cc2cc(CCN3CCN(c4nsc5ccccc45)CC3)c(Cl)cc2N1 [ziprasidone]
5-HT2A/D2 affinity ratio (human 5-HT2A receptor [10]): ~ 5.60
